Laboratory results taken from paper PMC7613998, “Development of selective inhibitors of phosphatidylinositol 3-kinase C2α” (Nature Chemical Biology, 2022).

Columns and labels:
Test in all cases: biochemical
Set-up in all cases: SelectScreen Adapta purified lipid kinase panel, 1 uM compound, 10 uM ATP, per cent inhibition
Settings in all cases: ATP=10; Technology=Adapta; 10 uM ATP
SPHK2 = molecular target: T1, SPHK2 (Homo sapiens, UniProt Q9NRA0)
T1 sequence (Q9NRA0 1-654): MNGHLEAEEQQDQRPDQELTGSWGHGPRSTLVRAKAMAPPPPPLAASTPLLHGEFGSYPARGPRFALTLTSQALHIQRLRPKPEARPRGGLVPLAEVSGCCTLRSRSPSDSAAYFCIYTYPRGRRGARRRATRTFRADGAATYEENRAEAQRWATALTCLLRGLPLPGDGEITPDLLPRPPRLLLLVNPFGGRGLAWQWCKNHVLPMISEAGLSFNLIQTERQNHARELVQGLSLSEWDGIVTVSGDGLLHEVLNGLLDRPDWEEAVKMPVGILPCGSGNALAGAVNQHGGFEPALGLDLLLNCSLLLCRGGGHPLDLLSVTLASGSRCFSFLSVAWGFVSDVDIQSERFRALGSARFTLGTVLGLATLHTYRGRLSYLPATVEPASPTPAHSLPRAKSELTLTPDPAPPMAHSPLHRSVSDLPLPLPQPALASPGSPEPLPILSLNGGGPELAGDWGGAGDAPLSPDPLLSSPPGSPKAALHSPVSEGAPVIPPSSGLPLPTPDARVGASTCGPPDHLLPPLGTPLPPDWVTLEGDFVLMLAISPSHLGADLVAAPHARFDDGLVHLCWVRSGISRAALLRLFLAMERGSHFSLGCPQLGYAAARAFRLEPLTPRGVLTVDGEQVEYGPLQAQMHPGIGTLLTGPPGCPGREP
Experimental: (§1) As PI3KC2α is related to other PI3Ks and to PI3K-like protein kinases such as mTOR, the selectivity of PITCOINs was determined in a panel of biochemical assays. […] Finally, the high specificity of PITCOINs for PI3KC2α was verified by Kinobead profiling experiments. In this approach, the ability of PITCOINs to compete the affinity capture of cellular kinases on immobilized nonselective kinase inhibitors (Kinobeads) is analyzed by mass spectrometry (MS)[31]. […] Four nonkinase weak off-targets were globally found for the three inhibitors with only FECH[32] common to the three PITCOINs (Supplementary Dataset).  Extended Data Fig. 2 Lipid kinase inhibitor profile of PITCOIN1-3. (a–c) Selectivity profiling of PITCOIN1-3 (1 µM) with purified lipid kinases in the presence of 10 µM ATP. […] Data are presented as mean ± SD from two independent experiments. (d, e) IC50 measurements of PITCOIN1-3 against purified recombinant class I PI3K p110α/p85α (d) or purified class III PI3K VPS34 complex II (e). 10 µM ATP and 20 µM PIP3 (for p110α/p85α) or 200 µM PI (for VPS34 complex II) were used as substrates. […] Data are presented as mean ± SD from two independent experiments. Source data

[1] = molecular target: PIK3CB/PIK3R2 (p110 beta/p85 beta) (Homo sapiens, UniProt P42338)
Experimental: as §1

PIK3CG (p110 gamma) = PIK3CG (p110 gamma) (Homo sapiens, UniProt P48736)
PIK3CG (p110 gamma), sequence (P48736 whole entry): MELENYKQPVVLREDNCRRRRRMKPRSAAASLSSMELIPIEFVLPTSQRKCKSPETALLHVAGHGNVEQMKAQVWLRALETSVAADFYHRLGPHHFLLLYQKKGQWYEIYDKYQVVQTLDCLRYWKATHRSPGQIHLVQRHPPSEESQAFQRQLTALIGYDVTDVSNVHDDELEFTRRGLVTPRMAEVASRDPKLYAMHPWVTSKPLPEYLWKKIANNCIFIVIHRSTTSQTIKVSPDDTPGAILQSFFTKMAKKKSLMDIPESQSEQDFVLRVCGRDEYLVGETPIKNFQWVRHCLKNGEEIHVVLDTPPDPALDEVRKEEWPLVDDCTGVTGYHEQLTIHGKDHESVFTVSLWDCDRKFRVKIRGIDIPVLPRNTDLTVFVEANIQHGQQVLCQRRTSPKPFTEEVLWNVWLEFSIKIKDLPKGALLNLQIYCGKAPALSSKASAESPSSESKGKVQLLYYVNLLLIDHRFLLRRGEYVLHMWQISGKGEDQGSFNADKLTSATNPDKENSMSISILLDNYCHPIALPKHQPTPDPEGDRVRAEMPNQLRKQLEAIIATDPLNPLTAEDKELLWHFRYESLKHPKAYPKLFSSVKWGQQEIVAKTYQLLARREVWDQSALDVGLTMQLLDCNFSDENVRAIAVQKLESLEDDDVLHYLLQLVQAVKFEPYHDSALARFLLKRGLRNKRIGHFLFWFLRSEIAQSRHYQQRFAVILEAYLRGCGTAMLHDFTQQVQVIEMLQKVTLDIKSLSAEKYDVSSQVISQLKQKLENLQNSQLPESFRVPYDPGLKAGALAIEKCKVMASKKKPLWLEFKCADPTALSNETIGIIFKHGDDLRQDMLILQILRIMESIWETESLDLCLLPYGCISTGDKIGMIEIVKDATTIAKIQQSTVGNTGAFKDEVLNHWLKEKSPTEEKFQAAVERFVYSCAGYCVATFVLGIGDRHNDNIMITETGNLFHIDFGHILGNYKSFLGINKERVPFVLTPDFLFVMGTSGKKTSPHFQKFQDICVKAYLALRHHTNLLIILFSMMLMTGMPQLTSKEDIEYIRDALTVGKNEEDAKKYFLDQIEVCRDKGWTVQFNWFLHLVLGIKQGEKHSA
Experimental: as §1

PI4K2A (PI4K2 alpha) = PI4K2A (PI4K2 alpha) (Homo sapiens, UniProt Q9BTU6)
PI4K2A (PI4K2 alpha), sequence (Q9BTU6 whole entry): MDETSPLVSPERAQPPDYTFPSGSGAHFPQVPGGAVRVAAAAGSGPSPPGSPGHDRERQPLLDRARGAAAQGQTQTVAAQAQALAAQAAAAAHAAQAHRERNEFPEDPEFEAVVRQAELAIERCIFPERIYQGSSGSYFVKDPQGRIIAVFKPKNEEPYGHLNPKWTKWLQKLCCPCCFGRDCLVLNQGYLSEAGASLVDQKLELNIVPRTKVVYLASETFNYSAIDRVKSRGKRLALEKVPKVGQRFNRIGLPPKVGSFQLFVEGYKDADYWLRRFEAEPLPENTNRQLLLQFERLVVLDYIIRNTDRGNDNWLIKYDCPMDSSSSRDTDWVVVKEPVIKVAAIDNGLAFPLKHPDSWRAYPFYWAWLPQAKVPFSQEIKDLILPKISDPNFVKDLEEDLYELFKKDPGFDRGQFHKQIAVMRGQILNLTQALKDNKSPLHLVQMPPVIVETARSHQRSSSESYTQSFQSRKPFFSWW
Experimental: as §1

PIK3C2B (PI3K-C2 beta) = PIK3C2B (PI3K-C2 beta) (Homo sapiens, UniProt O00750)
Experimental: as §1

SPHK1 = SPHK1 (Homo sapiens, UniProt Q9NYA1)
SPHK1, sequence (Q9NYA1 whole entry): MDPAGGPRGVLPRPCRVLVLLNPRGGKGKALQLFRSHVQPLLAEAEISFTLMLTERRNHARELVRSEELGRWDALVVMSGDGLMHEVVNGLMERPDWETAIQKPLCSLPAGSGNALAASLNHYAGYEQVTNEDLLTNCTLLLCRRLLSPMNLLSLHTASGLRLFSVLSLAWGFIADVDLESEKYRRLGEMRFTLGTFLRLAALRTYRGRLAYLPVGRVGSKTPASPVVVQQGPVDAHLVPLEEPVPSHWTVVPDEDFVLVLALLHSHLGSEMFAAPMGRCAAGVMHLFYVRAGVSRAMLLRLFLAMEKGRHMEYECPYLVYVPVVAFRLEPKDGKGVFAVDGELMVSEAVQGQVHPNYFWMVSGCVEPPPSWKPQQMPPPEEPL
Experimental: as §1

PIP4K2A = molecular target: T2, PIP4K2A (Homo sapiens, UniProt P48426)
T2 sequence (P48426 1-406): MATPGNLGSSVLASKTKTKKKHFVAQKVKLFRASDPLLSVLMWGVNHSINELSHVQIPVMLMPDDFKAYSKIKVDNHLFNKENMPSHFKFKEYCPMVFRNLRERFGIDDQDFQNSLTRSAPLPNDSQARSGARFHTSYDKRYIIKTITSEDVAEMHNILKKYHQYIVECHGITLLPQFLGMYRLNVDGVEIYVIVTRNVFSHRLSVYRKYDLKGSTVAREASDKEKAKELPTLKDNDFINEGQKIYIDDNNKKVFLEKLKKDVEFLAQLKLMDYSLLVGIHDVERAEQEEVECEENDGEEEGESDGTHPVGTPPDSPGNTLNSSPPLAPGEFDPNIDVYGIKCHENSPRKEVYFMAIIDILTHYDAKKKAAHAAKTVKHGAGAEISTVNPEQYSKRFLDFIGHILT
Experimental: as §1

PI4KA (PI4K alpha) = PI4KA (PI4K alpha) (Homo sapiens, UniProt P42356)
PI4KA (PI4K alpha), sequence (P42356 whole entry): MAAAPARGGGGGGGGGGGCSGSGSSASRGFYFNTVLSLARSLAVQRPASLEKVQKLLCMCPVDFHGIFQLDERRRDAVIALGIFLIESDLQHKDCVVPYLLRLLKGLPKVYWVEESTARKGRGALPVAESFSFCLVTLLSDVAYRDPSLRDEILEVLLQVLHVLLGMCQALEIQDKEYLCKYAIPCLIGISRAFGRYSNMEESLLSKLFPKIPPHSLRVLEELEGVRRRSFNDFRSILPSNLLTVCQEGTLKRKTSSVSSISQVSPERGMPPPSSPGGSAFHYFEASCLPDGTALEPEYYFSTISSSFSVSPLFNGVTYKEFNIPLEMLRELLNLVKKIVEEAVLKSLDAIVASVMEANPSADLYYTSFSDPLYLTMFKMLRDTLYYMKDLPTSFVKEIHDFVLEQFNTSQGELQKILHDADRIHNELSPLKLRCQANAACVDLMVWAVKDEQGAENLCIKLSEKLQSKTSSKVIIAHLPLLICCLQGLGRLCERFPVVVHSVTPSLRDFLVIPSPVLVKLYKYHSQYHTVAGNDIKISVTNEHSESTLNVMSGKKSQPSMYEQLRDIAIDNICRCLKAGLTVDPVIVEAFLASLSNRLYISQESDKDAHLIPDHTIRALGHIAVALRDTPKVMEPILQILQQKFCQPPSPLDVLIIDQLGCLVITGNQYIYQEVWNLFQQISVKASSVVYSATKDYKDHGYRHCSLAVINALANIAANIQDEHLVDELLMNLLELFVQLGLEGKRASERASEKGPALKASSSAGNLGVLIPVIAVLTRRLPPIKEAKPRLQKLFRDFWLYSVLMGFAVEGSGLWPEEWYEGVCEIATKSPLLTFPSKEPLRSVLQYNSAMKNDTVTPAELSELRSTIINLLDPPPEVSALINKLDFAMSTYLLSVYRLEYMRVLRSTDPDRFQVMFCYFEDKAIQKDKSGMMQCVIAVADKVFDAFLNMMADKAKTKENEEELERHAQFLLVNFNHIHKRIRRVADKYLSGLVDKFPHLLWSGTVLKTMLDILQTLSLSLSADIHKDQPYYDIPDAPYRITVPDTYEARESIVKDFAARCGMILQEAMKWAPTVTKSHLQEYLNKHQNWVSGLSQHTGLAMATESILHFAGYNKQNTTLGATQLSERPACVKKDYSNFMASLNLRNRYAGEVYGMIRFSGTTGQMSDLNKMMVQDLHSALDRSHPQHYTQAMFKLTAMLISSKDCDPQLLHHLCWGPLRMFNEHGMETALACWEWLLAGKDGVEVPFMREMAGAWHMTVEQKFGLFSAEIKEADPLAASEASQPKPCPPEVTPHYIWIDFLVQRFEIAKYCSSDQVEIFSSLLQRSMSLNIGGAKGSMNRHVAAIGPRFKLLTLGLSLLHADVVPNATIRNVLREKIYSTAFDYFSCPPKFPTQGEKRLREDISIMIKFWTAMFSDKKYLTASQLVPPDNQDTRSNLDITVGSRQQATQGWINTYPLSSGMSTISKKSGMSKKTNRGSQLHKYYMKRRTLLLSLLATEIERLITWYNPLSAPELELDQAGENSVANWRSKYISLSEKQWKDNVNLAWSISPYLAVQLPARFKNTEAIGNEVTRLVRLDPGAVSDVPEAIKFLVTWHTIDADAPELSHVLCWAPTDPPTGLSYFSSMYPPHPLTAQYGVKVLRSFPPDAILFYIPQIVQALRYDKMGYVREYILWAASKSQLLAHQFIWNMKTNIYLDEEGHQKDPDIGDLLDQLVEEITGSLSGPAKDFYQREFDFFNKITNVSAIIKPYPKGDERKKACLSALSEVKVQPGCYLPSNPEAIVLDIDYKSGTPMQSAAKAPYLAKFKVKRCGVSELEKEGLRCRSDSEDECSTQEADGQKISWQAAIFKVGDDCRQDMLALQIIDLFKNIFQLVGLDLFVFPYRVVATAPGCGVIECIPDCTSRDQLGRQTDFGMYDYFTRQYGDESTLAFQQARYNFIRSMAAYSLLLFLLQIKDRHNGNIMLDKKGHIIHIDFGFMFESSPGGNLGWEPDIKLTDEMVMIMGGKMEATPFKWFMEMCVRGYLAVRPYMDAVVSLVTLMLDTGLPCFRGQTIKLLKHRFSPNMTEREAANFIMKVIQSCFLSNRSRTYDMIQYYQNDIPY
Experimental: as §1

PI4K2B (PI4K2 beta) = PI4K2B (PI4K2 beta) (Homo sapiens, UniProt Q8TCG2)
PI4K2B (PI4K2 beta), sequence (Q8TCG2 whole entry): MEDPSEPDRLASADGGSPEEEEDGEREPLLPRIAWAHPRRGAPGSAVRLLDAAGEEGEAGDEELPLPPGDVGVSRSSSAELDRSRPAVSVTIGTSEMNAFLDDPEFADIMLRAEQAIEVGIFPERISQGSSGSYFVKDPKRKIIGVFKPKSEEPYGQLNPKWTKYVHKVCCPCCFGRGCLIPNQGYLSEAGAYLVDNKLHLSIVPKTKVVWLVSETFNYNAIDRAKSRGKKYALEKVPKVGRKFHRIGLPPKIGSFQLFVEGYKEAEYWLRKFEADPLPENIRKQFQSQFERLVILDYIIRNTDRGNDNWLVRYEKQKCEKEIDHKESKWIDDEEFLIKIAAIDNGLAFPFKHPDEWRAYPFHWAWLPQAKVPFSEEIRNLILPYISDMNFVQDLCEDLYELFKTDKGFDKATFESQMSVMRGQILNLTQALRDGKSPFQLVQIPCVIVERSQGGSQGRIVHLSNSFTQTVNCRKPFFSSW
Experimental: as §1

[2] = molecular target: PIK3CA E545K/PIK3R1 (p110 alpha E545K/p85 alpha) (Homo sapiens, UniProt P42336, E545K)
Experimental: as §1

[3] = molecular target: PIK3CA E542K/PIK3R1 (p110 alpha E542K/p85 alpha) (Homo sapiens, UniProt P42336, E542K)
Experimental: as §1

[4] = molecular target: PIK3CA/PIK3R1 (p110 alpha/p85 alpha) (Homo sapiens, UniProt P42336)
Experimental: as §1

Row | SMILES | inhibition at 1 µM (SPHK2) | inhibition at 1 µM [1] | inhibition at 1 µM (PIK3CG (p110 gamma)) | inhibition at 1 µM (PI4K2A (PI4K2 alpha)) | inhibition at 1 µM (PIK3C2B (PI3K-C2 beta)) | inhibition at 1 µM (SPHK1) | inhibition at 1 µM (PIP4K2A) | inhibition at 1 µM (PI4KA (PI4K alpha)) | inhibition at 1 µM (PI4K2B (PI4K2 beta)) | inhibition at 1 µM [2] | inhibition at 1 µM [3] | inhibition at 1 µM [4]
1 | O=C(CSc1nc2nccnc2c(=O)n1CCc1ccccc1)Nc1nccs1 [compound 1, PITCOIN1] | 9% | 3% | 20% | 8% | 12% | -1% | 13% | 1% | 4% | 2% | 5% | 5%
2 | O=C(CSc1nc2nccnc2c(=O)n1CCc1ccccc1)Nc1nc(-c2cccc(O)c2)cs1 [compound 2, PITCOIN2] | -1% | -2% | 16% | 4% | 40% | -6% | 2% | -9% | -5% | 0% | 9% | -1%
3 | CS(=O)(=O)Nc1cccc(-c2csc(NC(=O)CSc3nc4nccnc4c(=O)n3CCc3ccccc3)n2)c1 [compound 3, PITCOIN3] | -5% | 7% | 9% | 1% | 9% | -1% | -15% | 5% | 8% | 4% | 14% | 17%
